The values below come from patent US20260248972A1, “DUAL RECEPTOR TARGETING RADIOLIGANDS AND USES THEREOF RELATED APPLICATIONS” (priority 2022, published 2026).

SMILES strings stand for the structures.

Data set [1] concerns the target T1, CCK2R (Homo sapiens, UniProt P32239).
T1 construct: expressed in transfected cells; host or cells: HEK 293T cells
T1 sequence (P32239 1-447): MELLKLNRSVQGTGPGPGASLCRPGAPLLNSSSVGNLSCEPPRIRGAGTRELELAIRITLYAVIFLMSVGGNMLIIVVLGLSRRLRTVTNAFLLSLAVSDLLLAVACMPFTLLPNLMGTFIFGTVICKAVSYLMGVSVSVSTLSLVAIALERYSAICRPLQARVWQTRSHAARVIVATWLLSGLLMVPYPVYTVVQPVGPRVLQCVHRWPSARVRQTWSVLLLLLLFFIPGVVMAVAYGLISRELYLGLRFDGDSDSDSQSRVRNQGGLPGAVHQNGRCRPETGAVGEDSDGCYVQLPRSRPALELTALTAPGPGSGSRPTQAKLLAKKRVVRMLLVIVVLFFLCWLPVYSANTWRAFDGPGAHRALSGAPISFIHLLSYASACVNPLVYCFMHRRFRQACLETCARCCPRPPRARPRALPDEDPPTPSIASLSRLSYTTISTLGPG
Description: Competitive binding (FACS) on CCK2R-transfected HEK 293T cells with Cy5-labeled Z360. To be noted: HEK 293T transfected, Cy5-labeled Z360 competitive ligand (Table 3). Here is the method:
Binding Affinity Tested by Using Cy5-Labled Competitive Ligands.
HEK 293T cells were transfected with SSTR2 or CCK2R-expressing plasmid by Lipofectamine 2000 reagent. 24 hours after transfection, cells were harvested and suspended with assay buffer (1% OVA in DMEM). […] The testing compound was further supplemented into the wells at different concentrations. After incubation for 1 hour at dark, cells were washed and suspended in FACS buffer (1% OVA in DPBS). The fluorescent signal was detected by FACS machine and the binding affinity of the testing compound was evaluated by calculation of IC50 for competitive binding of reference compound.

Data set [2] deals with T1, CCK2R. In words: Competitive binding (FACS) on CCK2R-transfected HEK 293T cells with Cy5-labeled F11N derivative. To be noted: HEK 293T transfected, Cy5-labeled F11N derivative competitive ligand (Table 4); read-out: CCK2R IC50.
A short description of another data set: in vivo. To be noted: BALB/c nude, mouse, in vivo, iv, total radioactivity. The procedure, abridged:
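Compounds labelled with ^177Lu in 0.5 M NaOAc pH 4.5 at 95° C for 15 min, then used directly or diluted in PBS with 3 mg/mL ascorbate. BALB/c nude mice bore subcutaneous AR42J flank xenografts (0.05-0.50 g). Organs excised at 4, 24 and 72 h post-injection and γ-counted for % ID and % ID/g.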

With `CC(O)[C@H](NC(=O)[C@@H]1CSSC[C@H](NC(=O)[C@@H](Cc2ccccc2)NC(=O)COCCOCCNC(=O)[C@H](CCCCNC(=O)CCC(NC(=O)CNC(=O)c2cccc(NC(=O)N[C@@H]3CN(C4CCCCC4)c4ccccc4N(CC(=O)C(C)(C)C)C3=O)c2)C(=O)O)NC(=O)COCCOCCNC(=O)COCCOCCNC(=O)CC[C@H](NC(=O)CN2CCN(CC(=O)O)CCN(CC(=O)O)CCN(CC(=O)O)CC2)C(=O)O)C(=O)N[C@@H](Cc2ccc(O)cc2)C(=O)N[C@H](Cc2c[nH]c3ccccc23)C(=O)N[C@@H](CCCCN)C(=O)N[C@@H]([C@@H](C)O)C(=O)N1)C(=O)O` (stereo in doubt) [Compound I-21, DOTA-gE-OEG-OEG-K(-gE-G-Z360)-OEG-f[CYwKTC]T-OH], on CCK2R [1], the IC50 worked out at 7.13 nM.
In the case of `CCCC[C@H](NC(=O)[C@H](Cc1c[nH]c2ccccc12)NC(=O)CNC(=O)[C@H](Cc1ccc(O)cc1)NC(=O)[C@H](C)NC(=O)[C@@H](CCC(=O)O)NC(=O)[C@@H](CCC(=O)O)NC(=O)[C@@H](CCC(=O)O)NC(=O)[C@@H](CCC(=O)O)NC(=O)[C@@H](CCC(=O)O)NC(=O)[C@@H](CCC(=O)O)NC(=O)CN1CCN(CC(=O)O)CCN(CC(=O)O)CCN(CC(=O)O)CC1)C(=O)N[C@@H](CC(=O)O)C(=O)N[C@@H](Cc1ccccc1)C(N)=O` [Compound C5, DOTA-e-e-e-e-e-e-Ala-Tyr-Gly-Trp-Nle-Asp-Phe-NH2, reference compound], the 50% inhibitory concentration (IC50) at CCK2R [2] worked out at 25.7 nM.
Turning to `C[C@@H](O)[C@H](NC(=O)[C@@H]1CSSC[C@H](NC(=O)[C@@H](Cc2ccccc2)NC(=O)COCCOCCNC(=O)[C@H](CCCCNC(=O)CC[C@H](NC(=O)CNC(=O)c2cccc(NC(=O)N[C@@H]3CN(C4CCCCC4)c4ccccc4N(CC(=O)C(C)(C)C)C3=O)c2)C(=O)O)NC(=O)CN2CCN(CC(=O)O)CCN(CC(=O)O)CCN(CC(=O)O)CC2)C(=O)N[C@@H](Cc2ccc(O)cc2)C(=O)N[C@H](Cc2c[nH]c3ccccc23)C(=O)N[C@@H](CCCCN)C(=O)N[C@@H]([C@@H](C)O)C(=O)N1)C(=O)O` [Compound I-1, DOTA-K(-gE-G-Z360)-OEG-f[CYwKTC]T-OH], the tissue uptake at 24 h in the data set “in vivo” (uptake Kidney) was 14 %ID/g; in “in vivo” (uptake Liver), 2.86 %ID/g; in the data set “in vivo” (uptake Pancreas), 1.6 %ID/g; in the data set “in vivo” (uptake Spleen), 1.6 %ID/g; in “in vivo” (uptake Stomach) it was 2.53 %ID/g; in “in vivo” (uptake Tumor), 17.1 %ID/g. For the same compound, the concentration for half-maximal inhibition (IC50) at CCK2R [1] came to 7.32 nM.
Turning to `C[C@@H](O)[C@H](NC(=O)[C@@H]1CSSC[C@H](NC(=O)[C@@H](Cc2ccccc2)NC(=O)[C@H](CCCCNC(=O)[C@H](CCC(=O)O)NC(=O)c2cccc(NC(=O)N[C@@H]3CN(C4CCCCC4)c4ccccc4N(CC(=O)C(C)(C)C)C3=O)c2)NC(=O)CN2CCN(CC(=O)O)CCN(CC(=O)O)CCN(CC(=O)O)CC2)C(=O)N[C@@H](Cc2ccc(O)cc2)C(=O)N[C@H](Cc2c[nH]c3ccccc23)C(=O)N[C@@H](CCCCN)C(=O)N[C@@H]([C@@H](C)O)C(=O)N1)C(=O)O` [Compound I-25, DOTA-K(-E-Z360)-f[CYwKTC]T-OH], the IC50 on CCK2R [1] is 1.36 nM.
On the same count and under the same terms, then `C[C@@H](O)[C@H](NC(=O)[C@@H]1CSSC[C@H](NC(=O)[C@@H](Cc2ccccc2)NC(=O)[C@H](CCCCNC(=O)CC[C@H](NC(=O)CNC(=O)c2cccc(NC(=O)N[C@@H]3CN(C4CCCCC4)c4ccccc4N(CC(=O)C(C)(C)C)C3=O)c2)C(=O)O)NC(=O)CN2CCN(CC(=O)O)CCN(CC(=O)O)CCN(CC(=O)O)CC2)C(=O)N[C@@H](Cc2ccc(O)cc2)C(=O)N[C@H](Cc2c[nH]c3ccccc23)C(=O)N[C@@H](CCCCN)C(=O)N[C@@H]([C@@H](C)O)C(=O)N1)C(=O)O` [Compound I-26, DOTA-K(-gE-G-Z360)-f[CYwKTC]T-OH], with 2.67 nM; and `C[C@@H](O)[C@H](NC(=O)[C@@H]1CSSC[C@H](NC(=O)[C@@H](Cc2ccccc2)NC(=O)[C@H](CCCCNC(=O)COCCOCCNC(=O)[C@H](CCC(=O)O)NC(=O)c2cccc(NC(=O)N[C@@H]3CN(C4CCCCC4)c4ccccc4N(CC(=O)C(C)(C)C)C3=O)c2)NC(=O)CN2CCN(CC(=O)O)CCN(CC(=O)O)CCN(CC(=O)O)CC2)C(=O)N[C@@H](Cc2ccc(O)cc2)C(=O)N[C@H](Cc2c[nH]c3ccccc23)C(=O)N[C@@H](CCCCN)C(=O)N[C@@H]([C@@H](C)O)C(=O)N1)C(=O)O` [Compound I-28, DOTA-K(-OEG-E-Z360)-f[CYwKTC]T-OH], with 4.84 nM; and `C[C@@H](O)[C@H](NC(=O)[C@@H]1CSSC[C@H](NC(=O)[C@@H](Cc2ccccc2)NC(=O)[C@H](CCCCNC(=O)COCCOCCNC(=O)COCCOCCNC(=O)[C@H](CCC(=O)O)NC(=O)c2cccc(NC(=O)N[C@@H]3CN(C4CCCCC4)c4ccccc4N(CC(=O)C(C)(C)C)C3=O)c2)NC(=O)CN2CCN(CC(=O)O)CCN(CC(=O)O)CCN(CC(=O)O)CC2)C(=O)N[C@@H](Cc2ccc(O)cc2)C(=O)N[C@H](Cc2c[nH]c3ccccc23)C(=O)N[C@@H](CCCCN)C(=O)N[C@@H]([C@@H](C)O)C(=O)N1)C(=O)O` [Compound I-29, DOTA-K(-OEG-OEG-E-Z360)-f[CYwKTC]T-OH], with 0.46 nM.
The same measure, in the same setting: then `C[C@@H](O)[C@H](NC(=O)[C@@H]1CSSC[C@H](NC(=O)[C@@H](Cc2ccccc2)NC(=O)COCCOCCNC(=O)[C@H](CCCCNC(=O)COCCOCCNC(=O)[C@H](CCC(=O)O)NC(=O)c2cccc(NC(=O)N[C@@H]3CN(C4CCCCC4)c4ccccc4N(CC(=O)C(C)(C)C)C3=O)c2)NC(=O)CN2CCN(CC(=O)O)CCN(CC(=O)O)CCN(CC(=O)O)CC2)C(=O)N[C@@H](Cc2ccc(O)cc2)C(=O)N[C@H](Cc2c[nH]c3ccccc23)C(=O)N[C@@H](CCCCN)C(=O)N[C@@H]([C@@H](C)O)C(=O)N1)C(=O)O` [Compound I-30, DOTA-K(-OEG-E-Z360)-OEG-f[CYwKTC]T-OH], with 1.28 nM.
As for `C[C@@H](O)[C@H](NC(=O)[C@@H]1CSSC[C@H](NC(=O)[C@@H](Cc2ccccc2)NC(=O)CCCCCNC(=O)CCCCCNC(=O)[C@H](CCCCNC(=O)[C@H](CCC(=O)O)NC(=O)c2cccc(NC(=O)N[C@@H]3CN(C4CCCCC4)c4ccccc4N(CC(=O)C(C)(C)C)C3=O)c2)NC(=O)CCC(C(=O)O)N2CCN(CC(=O)O)CCN(CC(=O)O)CCN(CC(=O)O)CC2)C(=O)N[C@@H](Cc2ccc(O)cc2)C(=O)N[C@H](Cc2c[nH]c3ccccc23)C(=O)N[C@@H](CCCCN)C(=O)N[C@@H]([C@@H](C)O)C(=O)N1)C(=O)O` (stereo partly shown) [Compound I-72, DOTAGA- K(-Glu- Z360)- Ahx- Ahx- f[CYwKTC]T- OH], the IC50 on CCK2R [2] was 5.53 nM.
The same measure, in the same setting: then `C[C@@H](O)[C@H](NC(=O)[C@@H]1CSSC[C@H](NC(=O)[C@@H](Cc2ccccc2)NC(=O)COCCOCCNC(=O)COCCOCCNC(=O)CC[C@H](NC(=O)[C@H](CCCCNC(=O)c2cccc(NC(=O)CC3CN(C4CCCCC4)c4ccccc4N(CC(=O)C(C)(C)C)C3=O)c2)NC(=O)CN2CCN(CC(=O)O)CCN(CC(=O)O)CCN(CC(=O)O)CC2)C(=O)O)C(=O)N[C@@H](Cc2ccc(O)cc2)C(=O)N[C@H](Cc2c[nH]c3ccccc23)C(=O)N[C@@H](CCCCN)C(=O)N[C@@H]([C@@H](C)O)C(=O)N1)C(=O)O` (stereo partly shown) [Compound I-74, DOTA-K(Z360)-gGlu-OEG-OEG-f]CYwKTC]T-OH], with 56.7 nM.

The term IC50 denotes the concentration that inhibits the measured activity by half. As a reminder, the tissue uptake is the percentage of the injected dose found per gram of tissue.
